Results taken from patent US11401243B2, “Quinoline derived small molecule inhibitors of nicotinamide N-methyltransferase (NNMT) and uses thereof” (priority 2017, dated 2022).
Entries after “also recorded” stand apart in the source; their conditions may differ.

Assays:
[1] = Parallel artificial membrane permeability assay (PAMPA); assay type: in vitro ADME
Protocol: Samples were tested in triplicates in three separate experiments.

[2] = tested on: differentiated adipocytes (3T3 cells); experiment: Quantitative measurement of selected metabolites (NA, SAM, SAH, NAD+) in cultured cells; assay type: cell-based
Protocol: Sample processing was performed as described above.

[3] = molecular target: T1, recombinant human COMT enzyme (Homo sapiens, UniProt P21964); experiment: COMT activity assay (radiometric); assay type: biochemical; conditions: maximal tested concentration 600 μM
T1 construct: Reaction Biology Corporation (ran the assay)
T1 sequence (P21964 1-271): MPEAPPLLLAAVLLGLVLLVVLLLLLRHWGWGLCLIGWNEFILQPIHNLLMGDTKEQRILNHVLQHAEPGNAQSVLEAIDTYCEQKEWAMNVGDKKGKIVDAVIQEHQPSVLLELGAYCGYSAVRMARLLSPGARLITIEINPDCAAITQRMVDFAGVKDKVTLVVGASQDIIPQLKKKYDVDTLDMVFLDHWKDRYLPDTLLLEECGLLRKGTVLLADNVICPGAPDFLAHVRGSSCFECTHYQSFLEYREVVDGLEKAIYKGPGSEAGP

[4] = molecular target: T2, recombinant human SIRT-1 (NAD+-dependent) enzyme (Homo sapiens, UniProt Q96EB6); experiment: SIRT-1 activity assay (fluorometric); assay type: biochemical
T2 construct: Reaction Biology Corporation (ran the assay)
T2 sequence (Q96EB6 1-747): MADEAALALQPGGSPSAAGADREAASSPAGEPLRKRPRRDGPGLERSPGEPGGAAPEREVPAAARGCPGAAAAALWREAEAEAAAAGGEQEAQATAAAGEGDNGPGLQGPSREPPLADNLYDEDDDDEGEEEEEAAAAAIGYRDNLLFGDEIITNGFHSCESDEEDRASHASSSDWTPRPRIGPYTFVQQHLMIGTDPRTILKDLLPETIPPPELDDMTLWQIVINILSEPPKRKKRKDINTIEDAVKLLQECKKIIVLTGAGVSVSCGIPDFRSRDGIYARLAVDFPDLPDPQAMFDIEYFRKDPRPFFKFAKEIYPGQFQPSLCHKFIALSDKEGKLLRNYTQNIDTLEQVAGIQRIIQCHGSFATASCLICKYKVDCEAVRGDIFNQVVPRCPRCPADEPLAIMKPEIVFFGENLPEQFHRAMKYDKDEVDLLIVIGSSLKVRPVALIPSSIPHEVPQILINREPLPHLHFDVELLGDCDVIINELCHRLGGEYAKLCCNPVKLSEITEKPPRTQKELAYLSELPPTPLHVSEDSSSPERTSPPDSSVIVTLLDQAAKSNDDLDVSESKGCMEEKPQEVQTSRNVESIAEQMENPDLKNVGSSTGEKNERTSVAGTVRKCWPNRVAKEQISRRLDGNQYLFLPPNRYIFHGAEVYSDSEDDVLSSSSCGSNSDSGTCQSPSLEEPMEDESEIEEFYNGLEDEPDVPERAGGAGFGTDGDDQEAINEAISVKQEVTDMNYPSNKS

[5] = tested on: diet-induced obese (DIO) mice; assay type: in vivo
Protocol: 17-week old, male DIO C57Bl/6 mice that have been fed high-fat diet (HFD) for 11 weeks (starting at week 6) were purchased from Jackson Labs (Jackson Laboratory; Bar Harbour, Me., USA). Mice were initially group housed (three/cage) and allowed to acclimate to the colony environment maintained at a constant temperature (21-23° C.) and humidity (40-50%) on a 12-hour light-dark cycle (lights on 0600-1800 h). Upon arrival, mice were continued to be fed HFD (Open Source Diets formula D12451 from Research Diets Inc.; New Brunswick, N.J., USA), containing 45% energy from fat. Water was available ad libitum.
All experiments were carried out in accordance with the Guide for the Care and Use of Laboratory Animals and with approval from the Institutional Animal Care and Use Committee at the University of Texas Medical Branch. Following acclimation for seven days, mice were single-housed and maintained on HFD for 4 additional weeks. Mice were intermittently handled, with body weights and food intake (hopper weights) measured 2-3 times per week. […] Mice in the vehicle cohort received three subcutaneous (SC) saline (1 ml/kg) injections/day (˜0930, 1330, 1730 h) and mice in the treatment cohort received three SC injections of the NNMT inhibitor 5-amino-1MQ at a dose of 20 mg/kg/injection for a total dose of […] of the parent compound (calculated according to free weight) for 11 days. […] Body weight and food intake were measured every other day. On day 12, mice were subjected to a 4 h fast period, then deeply anesthetized using isoflurane and trunk blood was collected by decapitation. Plasma was separated from every sample and the samples were submitted to Texas A&M Veterinary Medical Diagnostic Laboratory (TVMDL; College Station, Tex., USA) for plasma lipid-panel measurements (total cholesterol and triglycerides). Triglycerides values were not included for analysis since the measurements were confounded by sample hemolysis that interfered with the triglyceride reagent in the assay. Epididymal fat pads (epididymal white adipose tissue; EWAT) were excised from every mouse, weighed, and fixed in 10% buffered formalin for further processing.
Formalin-fixed EWAT samples were paraffin embedded, sectioned ([…]), and stained with hematoxylin and eosin (H&E). Images were obtained at 20× magnification using a light microscope (Leica DM LB) and digitally photographed for automated image analysis. Images were analyzed using the “Adiposoft” plug-in software in ImageJ (NIH). […]. Minimum and maximum diameter parameters were assigned to identify appropriate cells for the automated adipocyte area calculations, and cells along the boundary of the images were excluded from analyses. Three to five images/sample were analyzed, with automated analysis confirmed by visual inspection. Images corresponding to each sample were averaged to obtain the mean adipocyte area (μm2) per sample and combined to calculate group mean values for control (vehicle-treated EWAT samples) and treatment (NNMT inhibitor-treated EWAT samples) cohorts.

[6] = DIO mice, 20 mg/kg SC t.i.d., 11 days

## C[n+]1cccc2c(N)cccc21 [1j, 5-amino-1-methylquinolin-1-ium iodide]
[1]; 400 μM in PBS, 4 h, room temperature, read-out: Flux
  Papp at 4 h, 400 μM: 3.01 ×10⁻⁶ cm/s
[1]; BCS classification, listed as 5-amino-1MQ
  Permeability Classification (passive transport): high passive and active transport; also recorded: High permeability
[2]; 10 μM
  NAD+ levels vs. control: significant increase
[2]; 30 μM
  intracellular SAM levels relative to control adipocytes: significant increase
[2]; 1-60 μM
  increase in NAD+ levels relative to control adipocytes: 1.2-1.6 fold
[2]; one-way ANOVA
  intracellular levels of NA: no statistically significant main effect
  intracellular levels of SAH: no statistically significant main effect
[3]
  inhibition at 600 µM: 10%
[4]; 10 nM-300 μM
  inhibition of SIRT1 (in words): did not inhibit
[4]; 600 μM
  SIRT1 activity (in words): minor reduction in SIRT1 activity
[5]; [6]
  decrease in mass of EWAT compared with control DIO mice: ~35%
  total cumulative food intake: 26.2 ± 1.4 g
  weight loss at end of treatment: 2.0 ± 0.6 g
  weight loss from baseline measures: ~5.1%
[5]; DIO mice, 20 mg/kg SC three times daily, 11 days
  body weight over treatment period compared to controls (in words): progressive loss of body weight
[5]; EWAT histology, 20 mg/kg SC t.i.d., 11 days
  decrease in adipocyte size compared to control DIO mice: > 30%
[5]; EWAT histology, data not shown
  decrease in adipocyte volume compared to control DIO mice: > 40%
[5]; mouse, in vivo, 60 mg/kg/day
  tolerability in dose escalation study: well tolerated with no observable adverse effects
[5]; plasma, 4 h fast, day 12
  total cholesterol levels lower relative to control DIO mice: ~30%
